Several values for one entry are separate records, joined by “and”; a condition that tells them apart may be missing. Equal entries are not always repeated.
Tested on: LG0703-F948-PDC complex spheroid viability
Assay: Anticancer human tumor LG0703-F948-PDC patient-derived lung adenocarcinoma cell line growth inhibition
Settings: for viability, T/C: stronger effect = lower value
Text: Multicellular complex tumor spheroid response to LSD1 Inhibitor Iadademstat in combination with a variety of drugs and investigational agents in selected tumor cell lines
The current study was undertaken to assess response to LSD1 inhibitors in combination with standard-of-care drugs and investigational agents in solid tumor complex spheroid models as well as in the K-562 leukemia. Complex spheroids include a stromal component modeled by human endothelial cells (HUVEC) and fibroblasts modeled by human mesenchymal stem cells (MSCs). The concentration ranges selected for each drug and investigational agent were based upon clinically achievable concentrations if the clinical Cmax of the agent was known.
Compounds. The drugs and investigational agents used in this study are listed on Table 1. All of the agents used, including staurosporine (NSC755774) and gemcitabine (NSC613327), were obtained from the Developmental Therapeutics Program, NCI. FDA-approved anticancer drugs are available from the NCI at http://dtp.nci.nih.gov/branches/dscb/oncology_drugset_explanation.html. Drugs and investigational agents were >95% pure by proton nuclear magnetic resonance (NMR) and liquid chromatography/mass spectrometry (LC/MS). Stock solutions were prepared at 400x in DMSO, stored at -70 degrees C, and diluted in fresh medium prior to their use. The final concentration of DMSO in cell culture wells never exceeded 0.25% (v/v). The FDA-approved anticancer drug set is available from the Developmental Therapeutics Program at https://dtp.cancer.gov/organization/dscb/obtaining/available_plates.htm. All drugs and investigational agents were tested over a range starting from a high concentration at or near the clinical Cmax and decreasing in half-log increments. If the clinical Cmax for an agent had not been determined, the highest concentration tested was 10 microM.
Cell Lines. The patient-derived cancer cell (PDC) lines: 292921-168-R-J2-PDC, K24384-001-R-PDC, and 521955-158-R2-J5-PDC pancreatic carcinomas, 556581-035-R-J1 ovarian carcinoma, 324938-238-R-J1-PDC, 855422-203-R-J1-PDC and 883617-216-R-J1-PDC urothelial bladder carcinomas, 743489-274-T-PDC renal cell carcinoma, 138582-R-J1 Merkel cell tumor, K60290-347-R-J1 and K57222-313-R-J1-PDC glioblastomas, 653999-131-R-J2-PDC, LG0703-F948-PDC, and 349418-098-R-PDC non-small cell lung carcinomas, 885512-296-R-J2-PDC, 171881-019-R-J1-PDC breast carcinomas and 186277-243-T-J2-PDC and 233499-124-R-J2-PDC colon carcinomas were obtained from the NCI Patient-Derived Models Repository (PDMR, https://pdmr.cancer.gov). The established cell lines NCI/ADR-RES (RRID:CVCL_14520 and OVCAR-5 (RRID:CVCL_1628) ovarian carcinomas, 786-O (RRID:CVCL_1051) and A498 (RRID:CVCL_A498) renal cell carcinoma, NCI-H211 (ATCC, cat. CRL-5824; RRID:CVCL_1529), NCI-H196 (ATCC, cat. CRL-5823, RRID:CVCL_1509), SW 1271 (ATCC, cat. CRL-2177, RRID:CVCL_1716) and NCI-H1876 (ATCC, cat. CRL-5902, RRID:CVCL_1503) small cell lung carcinomas, MDA-MB-231 (RRID:CVCL_0062) and MDA-MB-468 (RRID:CVCL_0419)breast carcinomas (10-12). Pooled donor human umbilical vein endothelial cells (HUVEC, Lonza, cat. CC-2519) and human mesenchymal stem cells (hMSC, Lonza, cat. PT-2501) were purchased from Lonza (Walkersville, MD).
Cell Culture. All cells were maintained in an incubator at 37 degrees C and 5% CO2 with 95% humidity. The PDC lines were cultured according to standard operating procedures established by the NCI PDMR (https://pdmr.cancer.gov). Briefly all PDCs were thawed and cultured in Matrigel-coated flasks prepared with a working solution of 1X Ham's F-12 nutrient mix, without supplementation (Invitrogen, Waltham, MA, cat. 11765054), 100 U/mL penicillin-streptomycin (Invitrogen, cat. 15140122), and 2.5% Matrigel (Corning Inc., Corning, NY, cat. 354248) for the first three passages. […]
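Note: spheroids exposed to agents for seven days before readout.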
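Throughout, for viability, T/C: 100% = DMSO vehicle control wells as normalization base.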

IC50 (curve of compound) | SMILES | viability, T/C (compound 0.00316 µM) | viability, T/C (compound 0.01 µM) | viability, T/C (compound 0.0316 µM) | viability, T/C (compound 0.1 µM) | viability, T/C (compound 0.316 µM) | viability, T/C (compound 1 µM) | viability, T/C (compound 0.00949 µM) | viability, T/C (compound 0.03 µM) | viability, T/C (compound 0.0949 µM) | viability, T/C (compound 0.3 µM) | other results
< 0.316 nM | CC(C)CC(NC(=O)C(Cc1ccccc1)NC(=O)c1cnccn1)B(O)O (configuration not stated) | 0.63% and 0.15% | 0.17% | 0.14% and 0.17% | 0.21% and 0.29% |  |  |  |  |  |  | viability, T/C (compound 0.000316 µM): 11.1% and 6.84%; viability, T/C (compound 0.001 µM): 1.41% and 0.31%
5.04 nM and 3.85 nM | CC(C)CC(NC(=O)CNC(=O)c1cc(Cl)ccc1Cl)B1OC(=O)CC(CC(=O)O)(C(=O)O)O1 (configuration not stated) | 68.4% and 56.8% | 21.7% and 15.9% | 3.57% and 2.13% | 0.76% and 0.44% |  |  |  |  |  |  | viability, T/C (compound 0.000316 µM): 102% and 100%; viability, T/C (compound 0.001 µM): 104% and 92.3%
> 10000 nM | CC(C)c1c(-c2ccccc2)nc2c(C#N)c[nH]n2c1=O |  |  | 106% and 93% | 91.8% and 84.6% | 84.1% and 102% | 100% and 86.9% |  |  |  |  | viability, T/C (compound 3.16 µM): 89.7% and 91%; viability, T/C (compound 10 µM): 75.7% and 79.8%
2410 nM and 3200 nM | CC1(C)CCC(CN2CCN(c3ccc(C(=O)NS(=O)(=O)c4ccc(NCC5CCOCC5)c([N+](=O)[O-])c4)c(Oc4cnc5[nH]ccc5c4)c3)CC2)=C(c2ccc(Cl)cc2)C1 |  |  | 87% and 94.2% | 98.5% and 93.8% | 91.7% and 89.7% | 96.8% and 84.2% |  |  |  |  | viability, T/C (compound 3.16 µM): 36.5% and 50.3%; viability, T/C (compound 10 µM): 3.78% and 4.3%
29 nM and 19.7 nM | CC1COCCN1c1cc(-c2ccnn2C)c2ccnc(-c3ccn[nH]3)c2n1 (configuration not stated) | 66.6% and 63.7% | 59.2% and 61.9% | 47.8% and 42.4% | 39.4% and 29.3% | 28.8% and 27.1% | 14% and 10.7% |  |  |  |  | 
4640 nM and 4620 nM | CC1COCCN1c1cc(C2(S(C)(=N)=O)CC2)nc(-c2ccnc3[nH]ccc23)n1 (configuration not stated) |  |  | 105% and 90.8% | 101% and 105% | 104% and 100% | 87.4% and 81.6% |  |  |  |  | viability, T/C (compound 3.16 µM): 63% and 65.7%; viability, T/C (compound 10 µM): 24.9% and 20.9%
> 3000 nM | CCN(c1cc(-c2ccc(CN3CCOCC3)cc2)cc(C(=O)NCc2c(C)cc(C)[nH]c2=O)c1C)C1CCOCC1 |  |  |  |  |  |  | 119% and 92.8% | 97.8% and 90.4% | 101% and 97.6% | 101% and 90.8% | viability, T/C (compound 0.949 µM): 105% and 96%; viability, T/C (compound 3 µM): 102% and 96.7%
75.4 nM and 66.7 nM | CC[C@@]1(O)C(=O)OCc2c1cc1n(c2=O)Cc2cc3c(CN(C)C)c(O)ccc3nc2-1 | 96.5% and 94.7% | 92.4% and 88.5% | 65.7% and 67.3% | 44.6% and 40.1% |  |  |  |  |  |  | viability, T/C (compound 0.000316 µM): 111% and 107%; viability, T/C (compound 0.001 µM): 97% and 103%
< 0.949 nM and 0.999 nM | CCc1c2c(nc3ccc(O)cc13)-c1cc3c(c(=O)n1C2)COC(=O)[C@]3(O)CC |  |  |  |  |  |  | 21.1% and 17.5% | 12.4% and 14.2% | 9.01% and 6.61% | 4.04% and 3.45% | viability, T/C (compound 0.000949 µM): 46.8% and 51.2%; viability, T/C (compound 0.003 µM): 28.6% and 31%
> 3000 nM | COc1cc(C2c3cc4c(cc3C(OC3OC5COC(C)OC5C(O)C3O)C3COC(=O)C23)OCO4)cc(OC)c1O (configuration not stated) |  |  |  |  |  |  | 91.2% and 110% | 86.7% and 112% | 83% and 88.5% | 77% and 84.2% | viability, T/C (compound 0.949 µM): 75% and 81.7%; viability, T/C (compound 3 µM): 49.3% and 59.2%
205 nM and 196 nM | COc1cc(Nc2ncc3c(n2)-c2ccc(Cl)cc2C(c2c(F)cccc2OC)=NC3)ccc1C(=O)O | 76.9% and 95.7% | 79.1% and 75.3% | 76.3% and 75.3% | 67.7% and 64.7% | 39.2% and 42.6% | 5.79% and 5.84% |  |  |  |  | 
1400 nM and 1380 nM | COc1ccc([C@@H](O)c2cc(-c3ncnc4cc(N5CCOCC5)ccc34)c(F)cc2Cl)nn1 |  |  | 96.8% and 94.9% | 95.5% and 89% | 83.9% and 78.1% | 64.1% and 62.8% |  |  |  |  | viability, T/C (compound 3.16 µM): 20.1% and 24%; viability, T/C (compound 10 µM): 3.89% and 4.14%
> 100 nM | Cn1ncnc1C1c2n[nH]c(=O)c3cc(F)cc(c23)NC1c1ccc(F)cc1 (configuration not stated) | 87.8% and 95.8% | 93.7% and 109% | 93.5% and 93.3% | 79.6% and 91.1% |  |  |  |  |  |  | viability, T/C (compound 0.000316 µM): 97.7% and 106%; viability, T/C (compound 0.001 µM): 104% and 106%
 | NC1CC1c1ccc(-c2cccc(O)c2)cc1 (configuration not stated) |  |  |  | 94.9% and 98.4% |  |  |  |  |  |  | viability, T/C (compound 3.16 µM): 99.9% [middle of 24 runs]; IC50 (compound alone, run of 02/21/2022): > 10000 nM
 | NC1CCC(NC2CC2c2ccccc2)CC1 (configuration not stated) |  |  |  |  | 99.4% and 101% and 110% |  |  |  |  |  | IC50 (compound alone, run of 02/15/2022): > 10000 nM
590 nM and 545 nM | NS(=O)(=O)OCC1CC(n2ccc3c(NC4CCc5ccccc54)ncnc32)CC1O (configuration not stated) |  |  |  |  |  |  | 103% and 93.6% | 110% and 98.5% | 102% and 92.3% | 74% and 62.3% | viability, T/C (compound 0.949 µM): 33.3% and 38.5%; viability, T/C (compound 3 µM): 15.6% and 20.2%
151 nM and 132 nM | Nc1ccccc1NC(=O)c1ccc(CNC(=O)OCc2cccnc2)cc1 |  |  |  |  |  |  | 100% and 75.3% | 101% and 76.5% | 68.7% and 63.2% | 21.4% and 17.3% | viability, T/C (compound 0.949 µM): 1.46% and 1.45%; viability, T/C (compound 3 µM): 0.48% and 0.84%
2.05 nM and 1.79 nM | Nc1ccn(C2OC(CO)C(O)C2(F)F)c(=O)n1 (configuration not stated) |  |  |  |  |  |  | 35.1% and 35% | 37.9% and 33.9% | 36.3% and 30.8% | 32.1% and 25.6% | viability, T/C (compound 0.000949 µM): 64.8% and 61.2%; viability, T/C (compound 0.003 µM): 42.9% and 39.4%
> 1000 nM | Nc1ncn(C2CC(O)C(CO)O2)c(=O)n1 (configuration not stated) | 85% and 110% | 101% and 104% | 88.3% and 95.8% | 91.7% and 91.4% | 83.5% and 92.4% | 79.6% and 91.2% |  |  |  |  | 
> 300 nM | Nc1ncn(C2CC(O)C(CO)S2)c(=O)n1 (configuration not stated) |  |  |  |  |  |  | 95.8% and 96.4% | 112% and 99.8% | 111% and 96.1% | 84.7% and 78.1% | viability, T/C (compound 0.000949 µM): 91.3% and 115%; viability, T/C (compound 0.003 µM): 118% and 98.8%
83.8 nM and 82.8 nM | O=C(C=Cc1cccc(S(=O)(=O)Nc2ccccc2)c1)NO |  |  |  |  |  |  | 94.2% and 95.1% | 90.9% and 90.4% | 43.7% and 43.1% | 11.7% and 12.1% | viability, T/C (compound 0.949 µM): 1.64% and 1.58%; viability, T/C (compound 3 µM): 0.25% and 0.32%
8.72 nM and 8.71 nM | O=C(C=Cn1cnc(-c2cc(C(F)(F)F)cc(C(F)(F)F)c2)n1)NNc1cnccn1 | 53.4% and 53.9% | 51.9% and 52.1% | 43.6% and 42.3% | 38% and 35.1% | 35.2% and 29.4% | 30.5% and 24.9% |  |  |  |  | 
> 10000 nM | O=C(c1cc(Cc2n[nH]c(=O)c3ccccc23)ccc1F)N1CCN(C(=O)C2CC2)CC1 |  |  | 84.5% and 107% | 97.1% and 103% | 86.5% and 98.2% | 93.8% and 106% |  |  |  |  | viability, T/C (compound 3.16 µM): 85.7% and 85.5%; viability, T/C (compound 10 µM): 65.5% and 74.2%

Reference: PubChem BioAssay AID1918952 (Molecular Pharmacology Branch, DTP, NCI, 2023)
